system: RSV; assay: XTT assay, RSV-infected Vero cells; type: cell-based, Respiratory Syncytial Virus (RSV); conditions: Table 1; Vero cells infected with RSV, m.o.i.≈0.2, 6 days at 33° C.; read-out: XTT IC50
Experimental: Examples 1 to 74 and 83 to 124 were tested using the following protocol.
The inner 60 wells of 96 well tissue culture plates were seeded with Vero cells at 3×10^4 cells/well (1×10^4 cells/well for toxicity studies) in 100 or 150 μl of medium and incubated at 37° C. overnight or until nearing confluency. For primary screen, 25 μl compounds were added directly to 100 μl medium in single wells to duplicate plates. A third plate was prepared for simultaneous toxicity investigation.
For follow-up investigation, 70 μl of compound in duplicate wells were added directly to culture medium at 3.2× final concentration and ½ log serially diluted down columns of plate. A duplicate plate was prepared for simultaneous toxicity investigation.
Cells were infected with 25 μl RSV to give m.o.i.≈0.2. Some 100 μl of sterile distilled water were added to the outer wells of the plate and incubated at 33° C. for 6 days. Some 0.25 μl/ml PMS were added to stock XTT solution, final conc. […]. Then 25 μl warmed XTT/PMS solution were added to each well and incubated for 5 hours at 37° C. Plates were shaken (DynaTech Vari-Shaker) vigorously for 10 mins and allowed to cool for 15 mins before sealing. Absorbance at 450 nm was measured and data analysed using Microsoft Excel software.
Maximum OD450nm reading (uninfected, untreated control cells) corresponded to 100% inhibition. Minimum OD450nm readings (infected control cells) corresponded to 0% inhibition. Log 10 concentration was plotted against OD450nm and IC50 (Table 1) values were calculated from either reading 50% value from graph or using regression analysis.

Row | SMILES | IC50
1 | O=C(NC1N=C(c2ccccc2)c2ccccc2NC1=O)C1CCCCC1 (centres unmarked) [Example 8] | 2 µM
2 | O=C1Nc2ccccc2C(c2ccccc2)=NC1NC(=O)N1CCCCC1 (centres unmarked) [Example 16] | 2 µM
3 | CCCCS(=O)(=O)NC1N=C(c2ccccc2)c2ccccc2NC1=O (centres unmarked) [Example 37, Butane-1-sulfonic acid-(2-oxo-5-phenyl-2,3-dihydro-H-benzo[e][1,4]diazepin-3-yl)-amide] | 15 µM
4 | COc1ccc(C(=O)NC2N=C(c3ccccc3)c3ccccc3NC2=O)cc1 (centres unmarked) [Example 10, 4-Methoxy N-(2-oxo-5-phenyl-2,3-dihydro-1H-benzo[e][1,4]diazepin-3-yl)-benzamide] | 1.5 µM
5 | CCCS(=O)(=O)NC1N=C(c2ccccc2)c2ccccc2NC1=O (centres unmarked) [Example 36] | 15 µM

same assay, conditions: human respiratory syncytial virus, 144 h; Table 1; Vero cells infected with RSV, m.o.i.≈0.2, 6 days at 33° C.; read-out: XTT IC50

Row | SMILES | IC50
6 | O=C(Nc1ccc(Cl)cc1)NC1N=C(c2ccccc2)c2ccccc2NC1=O (centres unmarked) [Example 71, 1-(4-Chloro-phenyl)-3-(2-oxo-5-phenyl-2,3-dihydro-1H-benzo[e][1,4]diazepin-3-yl)-urea] | 3 µM

same assay, conditions: human respiratory syncytial virus, Vero, 144 h, read-out: XTT IC50 (uM), Table 1; Vero cells infected with RSV, m.o.i.≈0.2, 6 days at 33° C.

Row | SMILES | IC50
7 | O=C1Nc2ccccc2C(c2ccccc2)=NC1NCc1ccccc1C(F)(F)F (centres unmarked) [Example 47, 5-Phenyl-3-(2-trifluoromethyl-benzylamino) 1,3-dihydro-benzo[e][1,4]diazepin-2-one] | 30 µM
8 | Cc1ccccc1C(=O)NC1N=C(c2ccccc2)c2ccccc2NC1=O (centres unmarked) [Example 24, 2-Methyl-N-(2-oxo-5-phenyl-2,3-dihydro-1H-benzo[e][1,4]diazepin-3-yl)-benzamide] | 3 µM
9 | O=C1Nc2ccccc2C(c2ccccc2)=NC1NC(=O)N1CCOCC1 (centres unmarked) [Example 17, Morpholine-4-carboxylic acid (2-oxo-5-phenyl-2,3-dihydro-1H-benzo[e][1,4]diazepin-3-yl)-amide] | 5 µM
10 | O=C1Nc2ccccc2C(c2ccccc2)=NC1NCc1cccc([N+](=O)[O-])c1 (centres unmarked) [Example 43, 3-(3-Nitro-benzylamino)-5-phenyl-1,3-dihydro-benzo[e][1,4]diazepin-2-one] | 30 µM
11 | O=C(NC1N=C(c2ccccc2)c2ccccc2NC1=O)c1cccnc1 (centres unmarked) [Example 34, N-(2-Oxo-5-phenyl-2,3-dihydro-1H-benzo[e][1,4]diazepin-3-yl)-nicotinamide] | 3 µM
12 | COc1ccc(C(=O)NC2N=C(c3ccccc3)c3cc(Cl)ccc3NC2=O)cc1 (centres unmarked) [Example 58, N-(7-Chloro-2-oxo-5-phenyl-2,3-dihydro-1H-benzo[e][1,4]diazepin-3-yl)-4-methoxy-benzamide] | 1.2 µM
13 | COc1cccc(CC(=O)NC2N=C(c3ccccc3)c3ccccc3NC2=O)c1 (centres unmarked) [Example 61, 2-(3-Methoxy-phenyl)-N-(2-oxo-5-phenyl-2,3-dihydro-1H-benzo[e][1,4]diazepin-3-yl)-acetamide] | 3 µM
14 | CC(C)(C)C(=O)NC1N=C(c2ccccc2)c2ccccc2NC1=O (centres unmarked) [Example 6, 2,2-Dimethyl-N-(2-Oxo-5-phenyl-2,3-dihydro-1H-benzo[e][1,4]diazepin-3-yl)-propionamide] | 6 µM
15 | O=C1Nc2ccccc2C(c2ccccc2)=NC1NCc1ccc(C(F)(F)F)cc1 (centres unmarked) [Example 49, 5-Phenyl-3-(4-trifluoromethyl-benzylamino)-1,3-dihydro-benzo[e][1,4]diazepin-2-one] | 50 µM
16 | CC(C)C(=O)NC1N=C(c2ccccc2)c2cc(Cl)ccc2NC1=O (centres unmarked) [Example 52, N-(7-Chloro-2-oxo-5-phenyl-2,3-dihydro-1H-benzo[e][1,4]diazepin-3-yl)-isobutyramide] | 3 µM
17 | O=C(NC1N=C(c2ccccc2)c2cc(Cl)ccc2NC1=O)c1ccccc1[N+](=O)[O-] (centres unmarked) [Example 59, N-(7-Chloro-2-oxo-5-phenyl-2,3-dihydro-1H-benzo[e][1,4]diazepin-3-yl)-2-nitro-benzamide] | 5 µM
18 | O=C(Cc1ccc(C(F)(F)F)cc1)NC1N=C(c2ccccc2)c2ccccc2NC1=O (centres unmarked) [Example 67, N-(2-Oxo-5-phenyl-2,3-dihydro-1H-benzo[e][1,4]diazepin-3-yl)-2-(4-trifluoromethyl-phenyl)-acetamide] | 1.5 µM
19 | O=C(Cc1cccc([N+](=O)[O-])c1)NC1N=C(c2ccccc2)c2ccccc2NC1=O (centres unmarked) [Example 64, 2-(3-Nitro-phenyl)-N-(2-oxo-5-phenyl-2,3-dihydro-1H-benzo[e][1,4]diazepin-3-yl)-acetamide] | 1 µM
20 | COc1cc([N+](=O)[O-])ccc1C(=O)NC1N=C(c2ccccc2)c2ccccc2NC1=O (centres unmarked) [Example 27a, 2-Methoxy-4-nitro-N-(2-oxo-5-phenyl-2,3-dihydro-1H-benzo[e][1,4]diazepin-3-yl)-benzamide] | 0.3 µM
21 | O=C1Nc2ccccc2C(c2ccccc2)=NC1NCc1ccc([N+](=O)[O-])cc1 (centres unmarked) [Example 44, 3-(4-Nitro-benzylamino)-5-phenyl-1,3-dihydro-benzo[e][1,4]diazepin-2-one] | 10 µM
22 | O=C(NC1N=C(c2ccccc2)c2cc(Cl)ccc2NC1=O)c1ccco1 (centres unmarked) [Example 54, Furan-2-carboxylic acid (7-chloro-2-oxo-5-phenyl-2,3-dihydro-1H-benzo[e][1,4]diazepin-3-yl)-amide] | 1.5 µM
23 | O=C(NC1N=C(c2ccccc2)c2ccccc2NC1=O)c1ccccc1 (centres unmarked) [Example 13, N-(2-Oxo-5-phenyl-2,3-dihydro-1H-benzo[e][1,4]diazepin-3-yl)-benzamide] | 1.5 µM
24 | O=C1Nc2ccccc2C(c2ccccc2)=NC1NS(=O)(=O)c1ccccc1Br (centres unmarked) [Example 38, 2-Bromo-N-(2-oxo-5-phenyl-2,3-dihydro-1H-benzo[e][1,4]diazepin-3-yl)-benzenesulfonamide] | 6 µM
25 | O=C(NC1N=C(c2ccccc2)c2ccccc2NC1=O)c1ccc([N+](=O)[O-])cc1 (centres unmarked) [Example 18, 4-Nitro-N-(2-oxo-5-phenyl-2,3-dihydro-1H-benzo[e][1,4]diazepin-3-yl)-benzamide] | 2 µM
26 | O=C(NC1N=C(c2ccccc2)c2cc(Cl)ccc2NC1=O)C1CCCCC1 (centres unmarked) [Example 56, Cyclohexanecarboxylic acid (7-Chloro-2-oxo-5-phenyl-2,3-dihydro-1H-benzo[e][1,4]diazepin-3-yl)-amide] | 5 µM
27 | CCCC(=O)NC1N=C(c2ccccc2)c2ccccc2NC1=O (centres unmarked) [Example 4, N-(2-Oxo-5-phenyl-2,3-dihydro-1H-benzo[e][1,4]diazepin-3-yl)-butyramide] | 5 µM
28 | O=C1Nc2ccccc2C(c2ccccc2)=NC1NS(=O)(=O)c1ccc(Br)cc1 (centres unmarked) [Example 40, 4-Bromo-N-(2-oxo-5-phenyl-2,3-dihydro-1H-benzo[e][1,4]diazepin-3-yl)-benzenesulfonamide] | 10 µM
29 | O=C1Nc2ccccc2C(c2ccccc2)=NC1NCc1ccccc1[N+](=O)[O-] (centres unmarked) [Example 42, 3-(2-Nitro-benzylamino)-5-phenyl-1,3-dihydro-benzo[e][1,4]diazepin-2-one] | 20 µM
30 | COc1cccc(CNC2N=C(c3ccccc3)c3ccccc3NC2=O)c1 (centres unmarked) [Example 46, 3-(3-Methoxy-benzylamino)-5-phenyl-1,3-dihydro-benzo[e][1,4]diazepin-2-one] | 30 µM
31 | O=C(NC1N=C(c2ccccc2)c2ccccc2NC1=O)c1ccsc1 (centres unmarked) [Example 32, Thiophen-3-carboxylic acid (2-oxo-5-phenyl-2,3-dihydro-1H-benzo[e][1,4]diazepin-3-yl)-amide] | 2 µM
32 | O=C(NC1N=C(c2ccccc2)c2ccccc2NC1=O)c1ccno1 (centres unmarked) [Example 30, Isoxazole-5-carboxylic acid (2-oxo-5-phenyl-2,3-dihydro-1H-benzo[e][1,4]diazepin-3-yl)-amide] | 3 µM
